According to patent US11896594B2, “Palatable antiparasitic formulations” (Zoetis Services LLC, priority 2018, dated 2024):

Key:
[1] = Moxidectin degradation in compressed tablets on accelerated stability (40° C./75% RH); format: physicochemical; conditions: for moxidectin degradation in the final tablets: 3 months 40°/75% RH; for moxidectin degradation: 40° C./75% RH; for moxidectin degradation in the finished product: 6 months accelerated stability
From the text: For the moxidectin granulation, four different polymers were screened. Initially, the moxidectin-polymer ratio was about 1:160 (about 21.82 w/w % polymer of intra granular portion). The polymers included hypromellose [hydroxypropylmethyl cellulose (HPMC), Poloxamer 188 (P188), ethyl cellulose, and hydroxypropyl methyl cellulose acetyl succinate MG (HPMC AS MG). […] Use of the polymers in the moxidectin granulation process provided stability to the moxidectin. […] HPMC concentration was then assessed to determine the effect on moxidectin stability in compressed tablets. Concentrations of moxidectin:HPMC were 1:20, 1:80, 1:120, and 1:160 in the moxidectin granulation. These amounts accounted for about 2.72 w/w %, 10.91 w/w %, 16.36 w/w %, and 21.82 w/w % of the moxidectin granulation, respectively. […] Therefore, the 1:80 ratio of moxidectin to HPMC was used to prepare the moxidectin granulations. The amount of HPMC in the moxidectin granulation is about 6 to 18 w/w %; the preferred amount is about 10 to 12 w/w %; and the most preferred amount is about 11 w/w %. In the final composition, the amount of HPMC is about 2.0 w/w % to about 4.0 w/w % of the total tablet weight; and more preferably, about 2.0 to 3 w/w % of the total tablet weight; and even more preferably, about 2.0 to 2.5 w/w % of the total tablet weight. To further control moxidectin degradation, the stability enhancer, meglumine, and the antioxidant, BHT, were added to the moxidectin granulation. […] Use of the higher concentration (2.72 w/w %) of meglumine was used initially to better control the acid catalyzed degradants. However, at 6 months, there was a greater increase in base catalyzed degradation of moxidectin at this concentration of meglumine. […] Similarly, moxidectin degradation was assessed using varying amounts of BHT in the moxidectin granulation.

D. immitis = experiment: Prevention of heartworm disease in dogs; format: in vivo; conditions: sensitive isolates; single dose; dogs

In the case of `CO/N=C1\C[C@]2(C[C@@H]3C[C@@H](C/C=C(\C)C[C@@H](C)/C=C/C=C4\CO[C@@H]5[C@H](O)C(C)=C[C@@H](C(=O)O3)[C@]45O)O2)O[C@H](/C(C)=C/C(C)C)[C@H]1C` [moxidectin], the “moxidectin degradation in the final tablets” value ([1]; BHT 0 w/w % in moxidectin granulation) was “about 2.7%”, the “moxidectin degradation in the final tablets” value ([1]; BHT 0.095 w/w % in granulation (0.018 w/w % of tablet)) was “about 1.4%” and the “moxidectin degradation in the final tablets” value ([1]; BHT 0.19 w/w % in granulation (0.037 w/w % of tablet)) was “about 2.3%”. The “moxidectin degradation in the final tablets” value ([1]; BHT 0.38 w/w % in granulation (0.074 w/w % of tablet)) was “about 2.2%”, the moxidectin degradation ([1]; HPMC AS MG in moxidectin granulation (about 1:160), 3-months) was 12.1% and the moxidectin degradation ([1]; HPMC in moxidectin granulation (moxidectin-polymer about 1:160), 3-months) was 3.6%. The moxidectin degradation ([1]; P188 (Poloxamer 188) in moxidectin granulation (about 1:160), 3-months) was 5.2%, the total moxidectin degradation ([1]; compressed tablets manufactured with HPMC, 6-month accelerated stability) was 5-6% and the moxidectin degradation ([1]; ethyl cellulose in moxidectin granulation (about 1:160), 3-months) was 7.4%. For the same molecule, the “moxidectin degradation in the final tablets” value ([1]; meglumine 0 w/w % in moxidectin granulation) was “about 2.4%”, the “moxidectin degradation in the final tablets” value ([1]; meglumine 1.36 w/w % in granulation (0.27 w/w % of tablet)) was “about 1.0%” and the “moxidectin degradation in the final tablets” value ([1]; meglumine 2.72 w/w % in granulation (0.54 w/w % of tablet)) was “about 0.7%”. The “moxidectin degradation in the finished product” value ([1]; moxidectin:HPMC 1:20 (2.72 w/w % of granulation)) was 5.04%, the “moxidectin degradation in the finished product” value ([1]; moxidectin:HPMC 1:80 (10.91 w/w % of granulation)) was 2.41% and the “moxidectin degradation in the finished product” value ([1]; moxidectin:HPMC 1:120 (16.36 w/w % of granulation)) was 2.26%. The “moxidectin degradation in the finished product” value ([1]; moxidectin:HPMC 1:160 (21.82 w/w % of granulation)) was 1.75%, the moxidectin degradation ([1]; without the use of a polymer, compressed tablets, 2-months) was 16.7% and the “efficacy against sensitive D. immitis isolates” value (D. immitis) was 100%.
